# How the values were obtained:
# AADC [1] = molecular target: T1, AADC (Sus scrofa, UniProt P80041); assay: In vitro AADC inhibition: time of 90% inactivation (14CO2 trapping, DL-[1-14C]-dopa substrate); assay type: biochemical, hog; parameters: key to RATING: ++++: The relative activities of the compounds are rated by the given number of "plus" signs; +++: The relative activities of the compounds are rated by the given number of "plus" signs; 0-+: The relative activities of the compounds are rated by the given number of "plus" signs; conditions: CONC. 100 μM
# T1 sequence (P80041 1-486): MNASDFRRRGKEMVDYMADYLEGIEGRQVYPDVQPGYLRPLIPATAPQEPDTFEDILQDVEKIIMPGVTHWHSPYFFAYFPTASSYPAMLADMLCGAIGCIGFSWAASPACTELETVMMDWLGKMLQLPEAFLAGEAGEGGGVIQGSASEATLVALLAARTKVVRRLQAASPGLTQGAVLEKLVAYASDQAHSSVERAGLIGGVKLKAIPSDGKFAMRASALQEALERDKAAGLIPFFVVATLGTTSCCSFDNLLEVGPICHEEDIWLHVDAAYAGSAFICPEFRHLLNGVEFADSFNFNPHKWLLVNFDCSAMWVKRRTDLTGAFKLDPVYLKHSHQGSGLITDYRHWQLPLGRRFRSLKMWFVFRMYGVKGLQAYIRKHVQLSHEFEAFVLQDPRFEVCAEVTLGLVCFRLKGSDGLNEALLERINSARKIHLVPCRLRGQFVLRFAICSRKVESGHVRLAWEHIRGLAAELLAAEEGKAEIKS
# Method: AADC can be purified from hog kidney by the general method of J. Christenson et al. Archs. Biochem. Biophys., 141, 356 (1970) and G. Lancaster et al., Can. J. Biochem., 50, 791 (1972), and the specific activity of the enzyme is determined by the ^14 CO2 trapping method using DL-[1-^14 C]-dopa as the substrate (see Christenson et al.). One unit of activity is defined as the total amount of enzyme which produces 1 n mol of CO2 per minute, with DL-[1-^14 C]-dopa as substrate.
# To 100 μl of 50 mM-phosphate buffer pH 7.4 containing 100 mM-mercapto-ethanol are added 5 μl of an aqueous solution containing the test compound at the desired concentration and 50 μl of an aqueous solution containing 2 units of AADC. The mixture is incubated at 37° C. and 20 μl aliquots are removed at various times. The AADC activity remaining in each aliquot is measured by the CO2 trapping method of Christenson.
# The relative activities of the compounds are rated by the given number of "plus" signs.
# AADC [2] = assay: Ex vivo AADC activity in organs of mice after repeated i.p. doses (Table II); parameters: species or system mice (Swiss Albino); conditions: three days, 12 h after 6th dose, vs control
# Method: (§1) The test animals (e.g. mice or rats) are given the test compound in a suitable vehicle, either orally or by injection, each day over the period of time desired. The animals are kept on a constant time cycle, and body weights are measured daily. The animals are sacrificed by decapitation 12 to 24 hours after receiving the last dose of the test compound. Control animals receive the vehicle alone.
# (§2) Immediately after death, the organs (brain, heart, and kidney) are removed and homogenized either in 50 ml phosphate buffer pH 6.8 for AADC determination or in ice-cold 0.4 M HClO4 containing 0.05% (w/v) EDTA and 0.1% (w/v) sodium bisulfite for catecholamine determination. AADC activity is determined by the ^14 CO2 trapping method of J. Christenson, supra (see Example 14) using DL-[1-^14 C]-dopa as the substrate. Catecholamines are determined by centrifuging the homogenate, adding the supernatant to alumina buffered to pH 8.0-8.4 to adsorb the catecholamines, re-extracting the catecholamines from the alumina with 0.2 M HClO4 and determining the catecholamines in the extracts using known procedures, such as by reversed-phase ion-pair HPLC with electrochemical detection.
# (§3) Table II, shown below, sets forth the results obtained by testing particular compounds of Formula I in the above-described procedure in mice (Swiss Albino) after i.p. administration of the compound twice daily for three days: […]
# [3] = system: catecholamine content (norepinephrine, dopamine); assay: Catecholamine content in organs of mice after repeated i.p. doses (Table II); assay type: in vivo, mice (Swiss Albino); conditions: three days, 12 h after 6th dose, vs control
# Method: as §1, §2, §3
# AADC [4] = assay: AADC inhibition in organs of fasted rats after a single dose; assay type: in vivo; conditions: 16 h
# Method: as §1, §2
# (§4) In the brain, doses of 10 mg/kg and 200 mg/kg produced a 10% reduction and a 70-80% reduction of AADC activity, respectively. […] In the heart, no reduction of norepinephrine is noted up to a dose of 200 mg/kg. When tested after multiple administration of 10, 25, or 50 mg/kg given daily for six days in rats sacrificed 24 hours after the sixth dose, the compound produced a 50% decrease in brain norephinephrine at a dose of 10 mg/kg (daily). […] Serotonin (5-HT) levels, as assessed by standard techniques, are not altered in the brain even at the highest dose tested. Heart norepinephrine is reduced by only 20% at the highest dose.
# [5] = system: catecholamine levels (norepinephrine, dopamine); assay: Catecholamine levels in organs of fasted rats after a single dose; assay type: in vivo; conditions: 16 h
# Method: as §1, §2, §4
# [6] = system: catecholamine levels (norepinephrine, dopamine) and serotonin (5-HT); assay: Catecholamine and serotonin levels in organs of rats after daily doses for six days; assay type: in vivo
# Method: as §1, §2, §4
# [7] = system: endogenous catecholamine and 5-HT levels; assay: Effect on endogenous catecholamine and 5-HT levels in brain and heart (general statement); assay type: in vivo
# [8] = system: catecholamine levels (dopamine, noradrenaline); assay: Effect of dopamine injection on catecholamine levels in heart and brain of mice treated with test compound (Table VI); assay type: in vivo, Male albino mice
# Method: Saline solution is used as a control. The mice are sacrificed and the catecholamines, dopamine and noradrenaline, and serotonin (5-hydroxytryptamine) are determined by reverse-phase ion-pair high pressure liquid chromatography using electrochemical detection. […] Twelve hours after the second dose, one group of animals received an i.p. injection of 50 mg/kg of dopamine-HCl (Sigma, Chem. Co), the other group received saline instead. Three hours after the dopamine injection, the animals were killed and catecholamines were measured in heart and brain as described in Example 18.
structure (smiles),measurement,setting,value
"NC(CF)(Cc1cccc(O)c1)C(=O)O (centres unmarked) [Example 3-OH-phenyl, 2-Amino-2-fluoromethyl-3-(3-hydroxyphenyl)propionic acid]",TIME OF 90% INACTIVATION,"AADC [1]; pH 7.4, 37° C.",4 min
same,RATING,AADC [1]; relative activity,+++
same,% CHANGE AADC Brain,AADC [2]; 10 mg/kg i.p. twice daily,-80%
same,% CHANGE AADC Kidney,AADC [2]; 10 mg/kg i.p. twice daily,-78%
same,% CHANGE AADC Brain,AADC [2]; 100 mg/kg i.p. twice daily,-95%
same,% CHANGE AADC Kidney,AADC [2]; 100 mg/kg i.p. twice daily,-96%
same,% CHANGE NOREPINEPHRINE Brain,"[3]; 10 mg/kg i.p. twice daily, * not significant",-34%
same,% CHANGE NOREPINEPHRINE Heart,"[3]; 10 mg/kg i.p. twice daily, * not significant (-25*, -7*)",0%
same,% CHANGE DOPAMINE Brain,"[3]; 10 mg/kg i.p. twice daily, * not significant (-25*, -9*)",0%
same,% CHANGE NOREPINEPHRINE Brain,[3]; 100 mg/kg i.p. twice daily,-77%
same,% CHANGE NOREPINEPHRINE Heart,[3]; 100 mg/kg i.p. twice daily,-49%
same,% CHANGE DOPAMINE Brain,"[3]; 100 mg/kg i.p. twice daily, * not significant (-35*)",-75%
COC(=O)C(N)(CF)Cc1ccc(O)cc1 (centres unmarked) [Methyl 2-amino-2-fluoromethyl-3-(4-hydroxyphenyl)propionate],reduction of AADC activity in the brain,AADC [4]; 10 mg/kg single dose,10%
same,"AADC activity in kidney, liver, and adrenals",AADC [4]; 50 mg/kg single dose,marked decrease
same,"AADC inhibition in kidney, liver, and adrenals",AADC [4]; 100 mg/kg single dose,Complete inhibition
same,reduction of AADC activity in the brain,AADC [4]; 200 mg/kg single dose,70-80%
same,AADC activity in the heart,AADC [4]; up to 200 mg/kg single dose,not reduced significantly
same,Brain norepinephrine decrease,[5]; 10 mg/kg single dose,15-20%
same,dopamine decrease (brain),[5]; 50 mg/kg single dose,decreased significantly
same,Brain norepinephrine decrease,[5]; 200 mg/kg single dose,50%
same,dopamine decrease (brain),[5]; 200 mg/kg single dose,75%
same,reduction of norepinephrine in the heart,[5]; up to 200 mg/kg single dose,no reduction
same,decrease in brain norepinephrine,"[6]; 10 mg/kg daily for six days, 24 h after sixth dose",50%
same,Brain dopamine decrease,"[6]; 50 mg/kg daily for six days, 24 h after sixth dose",50%
same,"decrease in brain norepinephrine, response at higher doses","[6]; 25 or 50 mg/kg daily for six days (above 10 mg/kg), 24 h after sixth dose",do not give an additional response
same,"Brain dopamine, effect at lower doses","[6]; below 50 mg/kg (10, 25) daily for six days, 24 h after sixth dose",no significant effect
same,Serotonin (5-HT) levels in the brain,"[6]; even at the highest dose tested, daily for six days",not altered
same,Heart norepinephrine reduction,"[6]; highest dose (50 mg/kg) daily for six days, 24 h after sixth dose",20%
same,endogenous 5-HT levels in the brain,[7],not altered
same,endogenous catecholamine levels in brain and heart,[7],lower engenous catecholamine levels in the brain but not in the heart
"NCCc1ccc(O)c(O)c1 [dopamine, reference compound]",depletion of noradrenaline in the heart achieved by the test-compound,[8]; effect of dopamine injection 50 mg/kg i.p.,reversed totally
same,depletion of amines in the central nervous system,[8]; effect of exogenous dopamine 50 mg/kg i.p.,not affected

# Reference: patent US4342780A, “Method of depleting endogenous monoamines” (Merrell-Toraude et Cie, priority 1981, dated 1982)
